How the values were obtained:
arthritis pain = details: cited from earlier work
patients = details: Zometa Prescribing Information; cited from earlier work
[1] = test system: patients with osteoporosis; assay: Zoledronic Acid alone or with prednisone (ZP), single infusion in osteoporosis patients: post-dosing syndrome; format: in vivo, human; details: four patients per arm
Experimental: Eight patients with osteoporosis were treated with a single infusion of Zoledronic Acid alone (four patients) or with a single infusion of the combination of prednisone and Zoledronic Acid (ZP, four patients).

[2] = in vivo; cited from earlier work
[3] = test system: subjects with knee osteoarthritis; assay: Single blind, single center study of intravenous ZP or ZA in knee osteoarthritis; format: in vivo, human
Experimental: In a further study, this one, a single blind, single center study, 20 subjects with knee osteoarthritis were randomized to either intravenous ZP or ZA in a 1:1 ratio. Subjects were followed for six months. Efficacy was measured by change in pain in 100 mm visual analogue score (VAS) from baseline (mean values). Patients were asked about the level of pain without taking rescue medications (NSAIDS or tramadol). Bone mineral density (BMD) was determined at baseline and six months to detect any effect on bone.

[4] = test system: subjects with osteoarthritis; assay: Joint pain (VAS scale) in the osteoarthritis subjects of the first study; format: in vivo, human; details: six months after the single infusion (one ZP subject up to one year); three ZP, two Zoledronic Acid subjects with osteoarthritis
Experimental: Of the 8 subjects, five had osteoarthritis. Of these five, three were treated with ZP and two with Zoledronic Acid.

In the case of `C[C@]12C=CC(=O)C=C1CC[C@@H]1[C@@H]2[C@@H](O)C[C@@]2(C)[C@H]1CC[C@]2(O)C(=O)CO` [Prednisolone], the “effect on arthritis pain” value (arthritis pain; IV, by itself) is given as “no effect on arthritis pain” and the duration of effect (arthritis pain; in vivo) is given as “transient, less than a day”.

In the case of `O=P(O)(O)C(O)(Cn1ccnc1)P(=O)(O)O` [Zoledronic Acid], the “patients affected by post-dosing syndrome (PDS)” value (patients) is listed as at most 44%, the “patients suffering from post-dosing syndrome (PDS)” value [1] is listed as “All four” and the “half-life (t1/2α)” value [2] is listed as “about 0.24 hours”. For the same molecule, the ΔBMD ([3]; bone mineral density, baseline versus six months) was 0, the “Δ Mean VAS” value ([3]; change in pain in 100 mm visual analogue score from baseline (mean values), six months follow-up, without rescue medications) was −10 mm and the “PDS (# reporting/total)” value ([3]; intravenous, 10 subjects per cohort, knee osteoarthritis) was 6/10. For the same molecule, the “change in joint pain (VAS scale)” value [4] was “same (one) or worse (one) level of pain”.
